Patent publication US6780616B1, “Antibiotic caprazamycins and process for producing the same” (Zaidan Hojin Biseibutsu Kagaku Kenkyu Kai Corp., priority 1999, dated 2004)
Values after ≈ are worked out from the molar mass of the structure shown.

What was measured:
[1] = tested on: Mycobacterium smegmatis ATCC607; assay: Antibacterial spectrum, serial dilution on 1% glycerin-supplemented nutrient agar; format: cell-based; settings: Mycolicibacterium smegmatis, read-out: Minimum growth inhibitory concentration
Experimental: (§1) The antibacterial spectrum of caprazamycin A against a variety of microorganisms were measured on a 1% glycerin-supplemented nutrient agar medium by a serial dilution method according to the standard method as provided by Japanese Society of Chemotherapy.
(§2) The antibacterial spectrum of caprazamycin B against a variety of microorganisms were measured on a 1% glycerin-supplemented nutrient agar medium by a serial dilution method according to the standard method as provided by Japanese Society of Chemotherapy.
(§3) The antibacterial spectrum of caprazamycin C against a variety of microorganisms were measured on a 1% glycerin-supplemented nutrient agar medium by a serial dilution method according to the standard method as provided by Japanese Society of Chemotherapy.
(§4) The antibacterial spectrum of caprazamycin E against a variety of microorganisms were measured on a 1% glycerin-supplemented nutrient agar medium by a serial dilution method according to the standard method as provided by Japanese Society of Chemotherapy.
(§5) The antibacterial spectrum of caprazamycin F against a variety of microorganisms were measured on a 1% glycerin-supplemented nutrient agar medium by a serial dilution method according to the standard method as provided by Japanese Society of Chemotherapy.

[2] = tested on: Mycobacterium smegmatis ATCC607 CPM-R (capreomycin-resistant); assay: as above; format: cell-based; settings: Mycolicibacterium smegmatis, ATCC607, read-out: Minimum growth inhibitory concentration
Experimental: as §1, §2, §3, §4, §5

Mycobacterium phlei = assay: as above; format: cell-based; settings: Mycolicibacterium phlei, read-out: Minimum growth inhibitory concentration
Experimental: as §1, §2, §3, §4, §5

[3] = tested on: Mycobacterium smegmatis ATCC607 ST-R (streptothricin-resistant); assay: as above; format: cell-based; settings: Mycolicibacterium smegmatis, ATCC607, read-out: Minimum growth inhibitory concentration
Experimental: as §1, §2, §3, §4, §5

[4] = tested on: Mycobacterium smegmatis ATCC607 RFP-R (rifampicin-resistant); assay: as above; format: cell-based; settings: Mycolicibacterium smegmatis, ATCC607, read-out: Minimum growth inhibitory concentration
Experimental: as §1, §2, §3, §4, §5

Mycobacterium fortuitum = assay: as above; format: cell-based; settings: Mycolicibacterium fortuitum, read-out: Minimum growth inhibitory concentration
Experimental: as §1, §2, §3, §4, §5

[5] = tested on: Mycobacterium smegmatis ATCC607 VM-R (viomycin-resistant); assay: as above; format: cell-based; settings: Mycolicibacterium smegmatis, ATCC607, read-out: Minimum growth inhibitory concentration
Experimental: as §1, §2, §3, §4, §5

[6] = tested on: Mycobacterium smegmatis ATCC607 SM-R (streptomycin-resistant); assay: as above; format: cell-based; settings: Mycolicibacterium smegmatis, ATCC607, read-out: Minimum growth inhibitory concentration
Experimental: as §1, §2, §3, §4, §5

[7] = tested on: Mycobacterium smegmatis ATCC607 KM-R (kanamycin-resistant); assay: as above; format: cell-based; settings: Mycolicibacterium smegmatis, ATCC607, read-out: Minimum growth inhibitory concentration
Experimental: as §1, §2, §3, §4, §5

[8] = tested on: Mycobacterium smegmatis ATCC607 PM-R (paromomycin-resistant); assay: as above; format: cell-based; settings: Mycolicibacterium smegmatis, ATCC607, read-out: Minimum growth inhibitory concentration
Experimental: as §1, §2, §3, §4, §5

[9] = tested on: Mycobacterium vaccae ATCC15483; assay: as above; format: cell-based; settings: Mycolicibacterium vaccae, read-out: Minimum growth inhibitory concentration
Experimental: as §1, §2, §3, §4, §5

[10] = tested on: Mycobacterium tuberculosis H37Rv NIHJ-1633; assay: Antibacterial spectrum, serial dilution in Middlebrook 7H9 liquid medium; format: cell-based; set-up: unit not given here
Experimental: (§6) The antibacterial spectrum of each of caprazamycins A, B, C, E and F against Mycobacterium tuberculosis, and against atypical acid-fast bacteria, Mycobacterium avium kirchberg and Mycobacterium intracellulare, were measured in a Middlebrook 7H9 liquid medium by a serial dilution method. At the same time, antibacterial spectra of rifampicin (RMP) and isonicotinic acid hydrazide (INH) (as comparative drug) against the above-mentioned acid-fast bacteria were measured by the same serial dilution method.

[11] = tested on: Mycobacterium avium kirchberg NIHJ-1605; assay: as above; format: cell-based; set-up: unit not given here
Experimental: as §6

[12] = tested on: Mycobacterium intracellulare E-1 NIHJ-1618; assay: as above; format: cell-based; set-up: unit not given here
Experimental: as §6

[13] = tested on: Staphylococcus aureus MS9610 (multiple drug-resistant); assay: Antibacterial spectrum, serial dilution on Müller-Hinton agar; format: cell-based; settings: read-out: Minimum growth inhibitory concentration
[14] = tested on: Staphylococcus aureus No.5 (methicillin-resistant); assay: as above; format: cell-based; settings: read-out: Minimum growth inhibitory concentration
Bacillus anthracis = assay: microbe, parasite or virus in culture; format: cell-based; settings: read-out: Minimum growth inhibitory concentration
[15] = tested on: Staphylococcus aureus Smith; assay: Antibacterial spectrum, serial dilution on Müller-Hinton agar; format: cell-based; settings: read-out: Minimum growth inhibitory concentration
Experimental: (§7) The antibacterial spectrum of caprazamycin B against a variety of microorganisms other than the microorganisms as specified in Table 2 were measured on Müller-Hinton agar medium by a serial dilution method according to the standard method as provided by Japanese Society of Chemotherapy.

[16] = tested on: Micrococcus luteus PCI1001; assay: as above; format: cell-based; settings: read-out: Minimum growth inhibitory concentration
Experimental: as §7

[17] = tested on: Bacillus cereus ATCC10702; assay: as above; format: cell-based; settings: read-out: Minimum growth inhibitory concentration
Experimental: as §7

Micrococcus luteus FDA16 = assay: as above; format: cell-based; settings: read-out: Minimum growth inhibitory concentration
Experimental: as §7

[18] = tested on: Corynebacterium bovis 1810; assay: as above; format: cell-based; settings: read-out: Minimum growth inhibitory concentration
Experimental: as §7

[19] = tested on: Staphylococcus aureus FDA209P; assay: as above; format: cell-based; settings: read-out: Minimum growth inhibitory concentration
Experimental: as §7

[20] = tested on: Staphylococcus aureus No.17 (methicillin-resistant); assay: as above; format: cell-based; settings: read-out: Minimum growth inhibitory concentration
[21] = tested on: Bacillus subtilis NRRL B-558; assay: as above; format: cell-based; settings: NRRLB558, read-out: Minimum growth inhibitory concentration
Escherichia coli NIHJ = assay: as above; format: cell-based; settings: read-out: Minimum growth inhibitory concentration
[22] = tested on: Staphylococcus aureus MS16526 (methicillin-resistant); assay: as above; format: cell-based; settings: read-out: Minimum growth inhibitory concentration
[23] = tested on: Staphylococcus aureus TY-04282 (methicillin-resistant); assay: as above; format: cell-based; settings: read-out: Minimum growth inhibitory concentration
[24] = tested on: Bacillus subtilis PCI1219; assay: as above; format: cell-based; settings: read-out: Minimum growth inhibitory concentration
[25] = tested on: mice (ICR type, 4 weeks-aged, male); assay: Toxicity in mice after intravenous administration; format: in vivo; settings: intravenously, 75 mg/kg
Source text: The dose of a caprazamycin of the general formula (I) or a salt thereof as an active ingredient in the composition of this invention may depend upon the nature of bacterial infections to be treated, a purpose of the therapeutic treatment, degree of the patient's conditions and so on. However, an optimal dose of a caprazamycin can be decided by experts through suitable preliminary tests.

Row | SMILES | MIC [1] [µg/mL] | MIC [2] [µg/mL] | MIC (Mycobacterium phlei) [µg/mL] | MIC [3] [µg/mL] | MIC [4] [µg/mL] | MIC (Mycobacterium fortuitum) [µg/mL] | MIC [5] [µg/mL] | MIC [6] [µg/mL] | MIC [7] [µg/mL] | MIC [8] [µg/mL] | MIC [9] [µg/mL] | Minimum Inhibitory Concentration of Compound tested against Test Bacteria [10] | Minimum Inhibitory Concentration of Compound tested against Test Bacteria [11] | Minimum Inhibitory Concentration of Compound tested against Test Bacteria [12] | further results
1 | CCCCCCCCCCCCCC(CC(=O)OC1CN(C)C(C(OC2OC(CN)C(O)C2O)C2OC(n3ccc(=O)[nH]c3=O)C(O)C2O)C(=O)N(C)C1C(=O)O)OC(=O)CC(C)CC(=O)OC1OC(C)C(OC)C(OC)C1OC (stereo not shown) [Caprazamycin A, caprazamycin A] | 1.56 (≈ 1.36 µM) | 0.78 (≈ 0.68 µM) | 1.56 (≈ 1.36 µM) | 0.78 (≈ 0.68 µM) | 0.78 (≈ 0.68 µM) | 6.25 (≈ 5.45 µM) | 0.78 (≈ 0.68 µM) | 1.56 (≈ 1.36 µM) | 0.78 (≈ 0.68 µM) | 1.56 (≈ 1.36 µM) | 0.2 (≈ 0.174 µM) | 1.56 | <0.025 | 0.78 | 
2 | COC1C(C)OC(OC(=O)CC(C)CC(=O)OC(CCCCCCCCCCC(C)C)CC(=O)OC2CN(C)C(C(OC3OC(CN)C(O)C3O)C3OC(n4ccc(=O)[nH]c4=O)C(O)C3O)C(=O)N(C)C2C(=O)O)C(OC)C1OC (stereo not shown) [Caprazamycin B, caprazamycin B] | 3.13 (≈ 2.73 µM) | 1.56 (≈ 1.36 µM) | 3.13 (≈ 2.73 µM) | 1.56 (≈ 1.36 µM) | 3.13 (≈ 2.73 µM) | 50 (≈ 43.6 µM) | 1.56 (≈ 1.36 µM) | 3.13 (≈ 2.73 µM) | 1.56 (≈ 1.36 µM) | 1.56 (≈ 1.36 µM) | 0.39 (≈ 0.34 µM) | 1.56 | <0.025 | 0.78 | MIC [13]: 3.13 µg/mL (≈ 2.73 µM); MIC [14]: 3.13 µg/mL (≈ 2.73 µM); MIC (Bacillus anthracis): 0.78 µg/mL (≈ 0.68 µM); MIC [15]: 3.13 µg/mL (≈ 2.73 µM); MIC [16]: 3.13 µg/mL (≈ 2.73 µM); MIC [17]: 3.13 µg/mL (≈ 2.73 µM); MIC (Micrococcus luteus FDA16): 3.13 µg/mL (≈ 2.73 µM); MIC [18]: 3.13 µg/mL (≈ 2.73 µM); MIC [19]: 1.56 µg/mL (≈ 1.36 µM); MIC [20]: 6.25 µg/mL (≈ 5.45 µM); MIC [21]: 12.5 µg/mL (≈ 10.9 µM); MIC (Escherichia coli NIHJ): 100 µg/mL (≈ 87.2 µM); MIC [22]: 3.13 µg/mL (≈ 2.73 µM); MIC [23]: 6.25 µg/mL (≈ 5.45 µM); MIC [24]: 6.25 µg/mL (≈ 5.45 µM); Toxicity [25]: did not exhibit any toxicity
3 | CCCCCCCCCCCCC(CC(=O)OC1CN(C)C(C(OC2OC(CN)C(O)C2O)C2OC(n3ccc(=O)[nH]c3=O)C(O)C2O)C(=O)N(C)C1C(=O)O)OC(=O)CC(C)CC(=O)OC1OC(C)C(OC)C(OC)C1OC (stereo not shown) [Caprazamycin C, caprazamycin C] | 1.56 (≈ 1.38 µM) | 1.56 (≈ 1.38 µM) | 1.56 (≈ 1.38 µM) | 1.56 (≈ 1.38 µM) | 1.56 (≈ 1.38 µM) | 12.5 (≈ 11 µM) | 1.56 (≈ 1.38 µM) | 1.56 (≈ 1.38 µM) | 0.78 (≈ 0.689 µM) | 1.56 (≈ 1.38 µM) | 0.39 (≈ 0.344 µM) | 0.78 | <0.025 | 0.78 | 
4 | CCCCCCCCCCCC(CC(=O)OC1CN(C)C(C(OC2OC(CN)C(O)C2O)C2OC(n3ccc(=O)[nH]c3=O)C(O)C2O)C(=O)N(C)C1C(=O)O)OC(=O)CC(C)CC(=O)OC1OC(C)C(OC)C(OC)C1OC (stereo not shown) [Caprazamycin E, caprazamycin E] | 1.56 (≈ 1.4 µM) | 0.39 (≈ 0.349 µM) | 1.56 (≈ 1.4 µM) | 0.78 (≈ 0.698 µM) | 0.78 (≈ 0.698 µM) | 12.5 (≈ 11.2 µM) | 0.39 (≈ 0.349 µM) | 1.56 (≈ 1.4 µM) | 0.78 (≈ 0.698 µM) | 1.56 (≈ 1.4 µM) | 0.39 (≈ 0.349 µM) | 0.78 | <0.025 | 0.78 | 
5 | COC1C(C)OC(OC(=O)CC(C)CC(=O)OC(CCCCCCCCC(C)C)CC(=O)OC2CN(C)C(C(OC3OC(CN)C(O)C3O)C3OC(n4ccc(=O)[nH]c4=O)C(O)C3O)C(=O)N(C)C2C(=O)O)C(OC)C1OC (stereo not shown) [Caprazamycin F, caprazamycin F] | 1.56 (≈ 1.4 µM) | 0.78 (≈ 0.698 µM) | 1.56 (≈ 1.4 µM) | 0.78 (≈ 0.698 µM) | 0.78 (≈ 0.698 µM) | 12.5 (≈ 11.2 µM) | 1.56 (≈ 1.4 µM) | 1.56 (≈ 1.4 µM) | 0.78 (≈ 0.698 µM) | 0.78 (≈ 0.698 µM) | 0.78 (≈ 0.698 µM) |  | 0.1 | 1.56 | 
